Data taken from the NIST ThermoML archive (doi:10.1021/acs.jced.8b00348).
Numbers after ± are expanded uncertainties.

Tests used:
[1] = refractive index (Na D-line) (dimensionless); xn = mol fraction of the nth substance listed; settings: 293.15 K, 93.13 kPa, Liquid, Standard Abbe refractometry
[2] = refractive index (Na D-line) (dimensionless); settings: 293.15 K; 93.13 kPa; Liquid; Standard Abbe refractometry
[3] = Liquid, Ebulliometric method (Recirculating still)

Work on `Cc1ccccc1C` [1,2-dimethylbenzene] + COc1ccccc1 yielded a refractive index ([1]; x1 = 1) of 1.5048 ± 0.0004.
In the case of `Cc1ccccc1C` [1,2-dimethylbenzene], the refractive index [2] is reported as 1.5048 ± 0.0004 and the “vapor or sublimation pressure” value ([3]; 414.41 K) is reported as 93.13 ± 0.96 kPa.
In the case of `CCc1ccccc1` [ethylbenzene], the refractive index [2] is reported as 1.4955 ± 0.0004 and the “vapor or sublimation pressure” value ([3]; 406.23 K) is reported as 93.13 ± 0.96 kPa.
Work on `COc1ccccc1` [anisole] + Cc1ccccc1C yielded a refractive index ([1]; x2 = 0) of 1.517 ± 0.0004, a refractive index ([1]; x2 = 0.0825) of 1.5159 ± 0.0004 and a refractive index ([1]; x2 = 0.1066) of 1.5156 ± 0.0004. The refractive index ([1]; x2 = 0.1439) was 1.5151 ± 0.0004, the refractive index ([1]; x2 = 0.1945) was 1.5144 ± 0.0004 and the refractive index ([1]; x2 = 0.2976) was 1.5131 ± 0.0004. For the same compound, the refractive index ([1]; x2 = 0.3812) was 1.512 ± 0.0004, the refractive index ([1]; x2 = 0.4796) was 1.5109 ± 0.0004 and the refractive index ([1]; x2 = 0.617) was 1.5092 ± 0.0004. It also gave a refractive index ([1]; x2 = 0.6785) of 1.5084 ± 0.0004, a refractive index ([1]; x2 = 0.7801) of 1.5072 ± 0.0004 and a refractive index ([1]; x2 = 0.9159) of 1.5057 ± 0.0004. For the same compound, the refractive index ([1]; x2 = 0.9329) was 1.5056 ± 0.0004.
With `Cc1cccc(C)c1` [1,3-dimethylbenzene] + COc1ccccc1 the refractive index ([1]; x1 = 1) was 1.497 ± 0.0004.
In the case of `CCc1ccccc1` [ethylbenzene] + COc1ccccc1, the refractive index ([1]; x1 = 1) is reported as 1.4955 ± 0.0004.
`Cc1ccc(C)cc1` [1,4-dimethylbenzene] + COc1ccccc1 showed a refractive index ([1]; x1 = 1) of 1.4956 ± 0.0004.
Work on `COc1ccccc1` [anisole] + CCc1ccccc1 yielded a refractive index ([1]; x2 = 0) of 1.517 ± 0.0004, a refractive index ([1]; x2 = 0.0762) of 1.5152 ± 0.0004 and a refractive index ([1]; x2 = 0.1494) of 1.5136 ± 0.0004. For the same compound, the refractive index ([1]; x2 = 0.1767) was 1.513 ± 0.0004, the refractive index ([1]; x2 = 0.2118) was 1.5122 ± 0.0004 and the refractive index ([1]; x2 = 0.2442) was 1.5115 ± 0.0004. It also gave a refractive index ([1]; x2 = 0.2691) of 1.511 ± 0.0004, a refractive index ([1]; x2 = 0.3432) of 1.5093 ± 0.0004 and a refractive index ([1]; x2 = 0.4041) of 1.508 ± 0.0004. It also gave a refractive index ([1]; x2 = 0.412) of 1.5077 ± 0.0004, a refractive index ([1]; x2 = 0.4651) of 1.5066 ± 0.0004 and a refractive index ([1]; x2 = 0.5183) of 1.5055 ± 0.0004. For the same compound, the refractive index ([1]; x2 = 0.6208) was 1.5033 ± 0.0004, the refractive index ([1]; x2 = 0.6885) was 1.5019 ± 0.0004 and the refractive index ([1]; x2 = 0.7927) was 1.4998 ± 0.0004. It also gave a refractive index ([1]; x2 = 0.9056) of 1.4975 ± 0.0004 and a refractive index ([1]; x2 = 0.9514) of 1.4965 ± 0.0004.
For `Cc1ccc(C)cc1` [1,4-dimethylbenzene], the refractive index [2] was 1.4956 ± 0.0004 and the “vapor or sublimation pressure” value ([3]; 408.37 K) was 93.13 ± 0.96 kPa.
With `COc1ccccc1` [anisole] + Cc1ccc(C)cc1 the refractive index ([1]; x2 = 0) was 1.517 ± 0.0004, the refractive index ([1]; x2 = 0.0499) was 1.5157 ± 0.0004 and the refractive index ([1]; x2 = 0.1387) was 1.5138 ± 0.0004. It also gave a refractive index ([1]; x2 = 0.1684) of 1.5131 ± 0.0004, a refractive index ([1]; x2 = 0.2124) of 1.5122 ± 0.0004 and a refractive index ([1]; x2 = 0.2656) of 1.511 ± 0.0004. The refractive index ([1]; x2 = 0.3055) was 1.5101 ± 0.0004, the refractive index ([1]; x2 = 0.4128) was 1.5078 ± 0.0004 and the refractive index ([1]; x2 = 0.4494) was 1.507 ± 0.0004. For the same compound, the refractive index ([1]; x2 = 0.4497) was 1.507 ± 0.0004, the refractive index ([1]; x2 = 0.5122) was 1.5057 ± 0.0004 and the refractive index ([1]; x2 = 0.5626) was 1.5046 ± 0.0004. The refractive index ([1]; x2 = 0.6095) was 1.5036 ± 0.0004, the refractive index ([1]; x2 = 0.8055) was 1.4995 ± 0.0004 and the refractive index ([1]; x2 = 0.8904) was 1.4978 ± 0.0004. It also gave a refractive index ([1]; x2 = 0.9613) of 1.4964 ± 0.0004.
For `Cc1cccc(C)c1` [1,3-dimethylbenzene], the refractive index [2] was 1.497 ± 0.0004 and the “vapor or sublimation pressure” value ([3]; 409.13 K) was 93.13 ± 0.96 kPa.
For `COc1ccccc1` [anisole] + Cc1cccc(C)c1, the refractive index ([1]; x2 = 0) was 1.517 ± 0.0004, the refractive index ([1]; x2 = 0.0756) was 1.5154 ± 0.0004 and the refractive index ([1]; x2 = 0.1836) was 1.5131 ± 0.0004. For the same compound, the refractive index ([1]; x2 = 0.2143) was 1.5125 ± 0.0004, the refractive index ([1]; x2 = 0.2716) was 1.5113 ± 0.0004 and the refractive index ([1]; x2 = 0.3152) was 1.5104 ± 0.0004. The refractive index ([1]; x2 = 0.4196) was 1.5082 ± 0.0004, the refractive index ([1]; x2 = 0.4711) was 1.5072 ± 0.0004 and the refractive index ([1]; x2 = 0.5086) was 1.5064 ± 0.0004. For the same compound, the refractive index ([1]; x2 = 0.6083) was 1.5045 ± 0.0004, the refractive index ([1]; x2 = 0.6746) was 1.5031 ± 0.0004 and the refractive index ([1]; x2 = 0.7383) was 1.5019 ± 0.0004. It also gave a refractive index ([1]; x2 = 0.8189) of 1.5002 ± 0.0004, a refractive index ([1]; x2 = 0.8552) of 1.4997 ± 0.0004 and a refractive index ([1]; x2 = 0.9339) of 1.4982 ± 0.0004.
In the case of `COc1ccccc1` [anisole], the refractive index [2] is reported as 1.517 ± 0.0004 and the “vapor or sublimation pressure” value ([3]; 423.38 K) is reported as 93.13 ± 0.96 kPa.
